From PubChem BioAssay (NCI)
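48-hour exposure; five concentrations; linearly interpolated endpoints. TGI is the concentration that stops growth completely.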

Key:
Assay in all cases: growth of human tumour cells (NCI), 48 h
786-0 renal = tested on: 786-0 renal
A549 NSCLC = tested on: A549 NSCLC
ACHN renal = tested on: ACHN renal
CCRF-CEM leukemia = tested on: CCRF-CEM leukemia
COLO 205 colon = tested on: COLO 205 colon
DMS 114 small cell lung = tested on: DMS 114 small cell lung
DMS 273 small cell lung = tested on: DMS 273 small cell lung
EKVX NSCLC = tested on: EKVX NSCLC
HCT-116 colon = tested on: HCT-116 colon
HCT-15 colon = tested on: HCT-15 colon
HL-60(TB) leukemia = tested on: HL-60(TB) leukemia
HOP-62 NSCLC = tested on: HOP-62 NSCLC
HT29 colon = tested on: HT29 colon
IGROV1 ovarian = tested on: IGROV1 ovarian
K-562 leukemia = tested on: K-562 leukemia
KM12 colon = tested on: KM12 colon
KM20L2 colon = tested on: KM20L2 colon
LOX IMVI melanoma = tested on: LOX IMVI melanoma
LXFL 529 NSCLC = tested on: LXFL 529 NSCLC
M14 melanoma = tested on: M14 melanoma
M19-MEL melanoma = tested on: M19-MEL melanoma
MALME-3M melanoma = tested on: MALME-3M melanoma
MOLT-4 leukemia = tested on: MOLT-4 leukemia
NCI-H226 lung = tested on: NCI-H226 lung
NCI-H23 lung = tested on: NCI-H23 lung
NCI-H460 lung = tested on: NCI-H460 lung
NCI-H522 lung = tested on: NCI-H522 lung
OVCAR-3 ovarian = tested on: OVCAR-3 ovarian
OVCAR-4 ovarian = tested on: OVCAR-4 ovarian
OVCAR-5 ovarian = tested on: OVCAR-5 ovarian
OVCAR-8 ovarian = tested on: OVCAR-8 ovarian
RPMI-8226 leukemia = tested on: RPMI-8226 leukemia
RXF 393 renal = tested on: RXF 393 renal
SF-268 CNS = tested on: SF-268 CNS
SF-295 CNS = tested on: SF-295 CNS
SF-539 CNS = tested on: SF-539 CNS
SK-MEL-2 melanoma = tested on: SK-MEL-2 melanoma
SK-MEL-28 melanoma = tested on: SK-MEL-28 melanoma
SK-MEL-5 melanoma = tested on: SK-MEL-5 melanoma
SN12C renal = tested on: SN12C renal
SNB-19 CNS = tested on: SNB-19 CNS
SNB-75 CNS = tested on: SNB-75 CNS
SNB-78 CNS = tested on: SNB-78 CNS
SR leukemia = tested on: SR leukemia
SW-620 colon = tested on: SW-620 colon
TK-10 renal = tested on: TK-10 renal
U251 CNS = tested on: U251 CNS
UACC-62 melanoma = tested on: UACC-62 melanoma
UO-31 renal = tested on: UO-31 renal
XF 498 CNS = tested on: XF 498 CNS
A498 renal = tested on: A498 renal
CAKI-1 renal = tested on: CAKI-1 renal
DLD-1 colon = tested on: DLD-1 colon
HCC-2998 colon = tested on: HCC-2998 colon
HOP-92 NSCLC = tested on: HOP-92 NSCLC
SK-OV-3 ovarian = tested on: SK-OV-3 ovarian
UACC-257 melanoma = tested on: UACC-257 melanoma

Measured: TGI

Cc1ccc(C2CC(c3ccco3)=NN2c2ccccc2)o1 (stereo unspecified)
> 100 µM: 786-0 renal | A549 NSCLC | ACHN renal | CCRF-CEM leukemia | COLO 205 colon | DMS 114 small cell lung | DMS 273 small cell lung | EKVX NSCLC | HCT-116 colon | HCT-15 colon | HL-60(TB) leukemia | HOP-62 NSCLC | HT29 colon | IGROV1 ovarian | K-562 leukemia | KM12 colon | KM20L2 colon | LOX IMVI melanoma | LXFL 529 NSCLC | M14 melanoma | M19-MEL melanoma | MALME-3M melanoma | MOLT-4 leukemia | NCI-H226 lung | NCI-H23 lung | NCI-H460 lung | NCI-H522 lung | OVCAR-3 ovarian | OVCAR-4 ovarian | OVCAR-5 ovarian | OVCAR-8 ovarian | RPMI-8226 leukemia | RXF 393 renal | SF-268 CNS | SF-295 CNS | SF-539 CNS | SK-MEL-2 melanoma | SK-MEL-28 melanoma | SK-MEL-5 melanoma | SN12C renal | SNB-19 CNS | SNB-75 CNS | SNB-78 CNS | SR leukemia | SW-620 colon | TK-10 renal | U251 CNS | UACC-62 melanoma | UO-31 renal | XF 498 CNS

Cc1cn2c(=O)c3ccccc3nc2s1
> 100 µM: 786-0 renal | A498 renal | A549 NSCLC | ACHN renal | CAKI-1 renal | CCRF-CEM leukemia | COLO 205 colon | DLD-1 colon | DMS 114 small cell lung | DMS 273 small cell lung | EKVX NSCLC | HCC-2998 colon | HCT-116 colon | HL-60(TB) leukemia | HOP-62 NSCLC | HOP-92 NSCLC | HT29 colon | IGROV1 ovarian | K-562 leukemia | KM12 colon | KM20L2 colon | LOX IMVI melanoma | LXFL 529 NSCLC | M14 melanoma | M19-MEL melanoma | MALME-3M melanoma | MOLT-4 leukemia | NCI-H226 lung | NCI-H23 lung | NCI-H460 lung | NCI-H522 lung | OVCAR-3 ovarian | OVCAR-4 ovarian | OVCAR-5 ovarian | OVCAR-8 ovarian | RPMI-8226 leukemia | RXF 393 renal | SF-268 CNS | SF-295 CNS | SF-539 CNS | SK-MEL-2 melanoma | SK-MEL-28 melanoma | SK-MEL-5 melanoma | SK-OV-3 ovarian | SN12C renal | SNB-19 CNS | SNB-75 CNS | SNB-78 CNS | SR leukemia | SW-620 colon | TK-10 renal | U251 CNS | UACC-257 melanoma | UACC-62 melanoma | UO-31 renal

Cc1cc(C)n(CCNCCn2nc(C)cc2C)n1
> 1 µM: HCT-15 colon | SK-MEL-2 melanoma | XF 498 CNS
> 100 µM: 786-0 renal | A498 renal | A549 NSCLC | ACHN renal | CAKI-1 renal | CCRF-CEM leukemia | COLO 205 colon | DLD-1 colon | DMS 114 small cell lung | DMS 273 small cell lung | EKVX NSCLC | HCC-2998 colon | HCT-116 colon | HL-60(TB) leukemia | HOP-62 NSCLC | HOP-92 NSCLC | K-562 leukemia | KM12 colon | KM20L2 colon | LOX IMVI melanoma | LXFL 529 NSCLC | M14 melanoma | M19-MEL melanoma | MOLT-4 leukemia | NCI-H23 lung | NCI-H460 lung | NCI-H522 lung | OVCAR-3 ovarian | OVCAR-4 ovarian | OVCAR-8 ovarian | RPMI-8226 leukemia | RXF 393 renal | SF-268 CNS | SF-295 CNS | SF-539 CNS | SK-MEL-28 melanoma | SK-MEL-5 melanoma | SK-OV-3 ovarian | SN12C renal | SNB-19 CNS | SNB-75 CNS | SNB-78 CNS | SR leukemia | SW-620 colon | TK-10 renal | U251 CNS | UACC-257 melanoma | UACC-62 melanoma | UO-31 renal

COc1c(C)c2c(c(C)c1Cl)Oc1c(C=O)c(O)c(Cl)c(C)c1C(=O)O2
58.8 µM: A498 renal
22.7 µM: XF 498 CNS
69.8 µM: HCC-2998 colon
94.6 µM: NCI-H226 lung
54.7 µM: SNB-78 CNS
44.9 µM: U251 CNS
> 100 µM: 786-0 renal | A549 NSCLC | CAKI-1 renal | DLD-1 colon | HT29 colon | KM12 colon | M14 melanoma | M19-MEL melanoma | NCI-H460 lung | OVCAR-8 ovarian | RPMI-8226 leukemia | SF-268 CNS | SF-295 CNS | SK-MEL-5 melanoma | SK-OV-3 ovarian | SN12C renal | SW-620 colon | TK-10 renal | UACC-257 melanoma
39.7 µM: SF-539 CNS
79.1 µM: DMS 114 small cell lung
57.8 µM: HL-60(TB) leukemia
97 µM: K-562 leukemia
69.7 µM: ACHN renal
63 µM: UACC-62 melanoma
78.8 µM: OVCAR-5 ovarian
96.4 µM: NCI-H522 lung
61 µM: MALME-3M melanoma
89.4 µM: SR leukemia
61.9 µM: HCT-116 colon
30.8 µM: OVCAR-3 ovarian
93.7 µM: HOP-62 NSCLC
46.2 µM: EKVX NSCLC
79.7 µM: SNB-75 CNS
82.9 µM: KM20L2 colon | LXFL 529 NSCLC
83.8 µM: IGROV1 ovarian
65.2 µM: MOLT-4 leukemia
72.5 µM: CCRF-CEM leukemia
66.4 µM: COLO 205 colon
90.7 µM: LOX IMVI melanoma
70.5 µM: DMS 273 small cell lung
45.2 µM: NCI-H23 lung
